Measurements taken from PMC11729550, “Discovery of indole analogue Tc3 as a potent pyroptosis inducer and identification of its combination strategy against hepatic carcinoma” (Theranostics, 2025).
pIC50: −log10 of the molar value.

Tests used:
AML-12 cells [1] = assay: Dose-response growth inhibition of liver parenchymal cells; assay type: cell-based; settings: AML12; mouse liver parenchymal cells
Text: (§1) The cells were counted with hemocytometer.
(E) Dose-response curves for Tc3 inhibiting the growth of AML-12 cells.

HepG2 cells [2] = assay: Flow cytometry of propidium iodide and annexin V-FITC staining; assay type: cell-based, human; settings: HepG2, 4 μM
Text: (§2) Figure 2 Cytotoxic effect of Tc3 on human hepatic carcinoma cells in vitro. […] (B-C) Cell viability rates of HepG2 (B) and SK-Hep1 (C) cells treated with Tb7, Tc1, Tc3, Tc4 and other clinical chemotherapy drugs. (D-F) Flow cytometry of propidium iodide and annexin V-fluorescein isothiocyanate (FITC)-stained HepG2 cells (D). Statistical analysis of the early apoptotic cells (E) and late apoptotic cells (F). (G-I) Flow cytometry of propidium iodide and annexin V-fluorescein isothiocyanate (FITC)-stained AML-12 cells (G). Statistical analysis of the early apoptotic cells (H) and late apoptotic cells (I). Data are presented as mean ± SD of three independent biological experiments. *p < 0.05, **p < 0.01, ***p < 0.001 and ****p < 0.0001, ns, no significant.

AML-12 cells [3] = assay: as above; assay type: cell-based, mouse
Text: as §2

[4] = Hydrolytic stability in phosphate buffer (HPLC); assay type: physicochemical; settings: phosphate buffer of PH 7.4 over 150 minutes
Method: The stability of Tc3 was evaluated by an UltiMate 3000 Dual-Gradient HPLC system (Sunnyvale, CA, USA). The samples of solution were chromatographed on ZORBAX Eclipse XDB-C18 column(5 µm, 4.6 × 150 mm, Agela Technologies), using an eluent composed of: water (95%) and acetonitrile (5%) at a flow rate of 1.0 mL/min. […] The hydrolysis of Tc3 was carried out in a phosphate buffer of PH 7.4 (50 ug/ml, initial concentration of 5 mM in methanol) over 150 minutes.

shDFNA5 HepG2 cells = assay: Dose-response growth inhibition, GSDME knockdown cells; assay type: cell-based; settings: Homo sapiens
Method: as §1
Briefly, the pLKO.1 or shRNA plasmids with psPAX2 and PMD2.G were transfected into HEK-293T cells via DNA transfection reagent (SignaGen®Laboratories, SL100688). And the cell supernatant contained Lenti-virus was collected after 24 hours. The Lenti-virus of shRNAs were used to infect the hepatic carcinoma cells and the stable-transfection cell lines were screened by puromycin (1 μg/mL) (Solarbio, P8230).

HepG2 cells [5] = assay: RNA sequencing analysis; assay type: cell-based, human; settings: HepG2, 4 μM, 24h, versus DMSO
Method: HepG2 cells were treated with dimethyl sulfoxide (DMSO) or Tc3 (4 μM) for 24h. And the total RNA was isolated using TRIzol (Solarbio, R1100). Next, the samples were processed and the RNA libraries were constructed by APTBIO company (Shanghai, China). Paired-end reads were aligned to a reference genome index which created using HISAT2, with read assignments to each gene quantified with feature counts. Gene expression was quantified using Transcripts Per Million (TPM). We identified Differentially Expressed Genes (DEGs) using the DESeq2 package in R, defining DEGs as those with an absolute log2 fold change greater than 1 and an adjusted p-value less than 0.05. We performed Gene Ontology (GO) and KEGG pathway enrichment analyses using the "cluster Profiler" package in R. GO terms and KEGG pathways with an adjusted P-value less than 0.05 were statistically significant. Our results were visualized using the ggplot2 and fact extra packages in R.

Hepa1-6 CDXs = assay: Anti-PD-1 antibody synergistic effect in vivo; settings: C57 BL/6N mice
Text: (§3) Balb/c nude mice (female, 6-week-old) were subcutaneously injected with 2 × 10^6 HepG2 cells on the left and right flanks to construct cell-derived xenografts (CDXs). The patient-derived xenografts (PDXs) samples were gifts from Dr Changliang Shan of Nankai University. C57 BL/6N mice (female, 5-week-old) were subcutaneously injected with 2 × 10^6 Hepa1-6 cells mixed with matrigel (ABW, 0827265) on the left and right flanks. The mice were inoculated with hepatic carcinoma CDXs or PDXs for at least four days, and treated (i.p.) by vehicle and Tc3. […] Tumor volume = 4π/3 × (Length/2) × (Width/2)^2. All animal experiments were carried out in accordance with the recommendations of Requirements of the Ethical Review System of Biomedical Research Involving Human by National Health and Family Planning Commission of China and Nankai University Ethics Committee with written informed consent complying with the Declaration of Helsinki (IAEC ID: 2023-STDWLL-000249).
The CDI value of tumor weight was calculated using formula mentioned before.

hepatocarcinoma PDXs = assay: Hepatocarcinoma PDXs treatment; assay type: in vivo, Balb/c nude mice; settings: 20 mg/kg and 40 mg/kg i.p. ten times, day 20
Text: as §3

HepG2 CDXs = HepG2 CDXs treatment; assay type: in vivo, Balb/c nude mice; settings: 20 mg/kg and 40 mg/kg i.p. five times
Text: as §3

[6] = system: HepG2, SK-Hep1, and PLC-PRF5 cells; assay: Cell proliferation assays (growth curve, colony formation); assay type: cell-based, human; settings: 0-4 μM
Method: For colony formation, hepatic carcinoma cells were seeded in 6-well plates and treated with Tc3 for almost 10 days, and the cell colonies were photographed for statistical analysis.

hepatic carcinoma cells = assay: Cell migration assay (wound scratch, transwell); assay type: cell-based, human; settings: HepG2 and SK-Hep1, 0-4 μM
Method: For transwell assay, the hepatic carcinoma cells were seeded in wells and put wells into 24-well plates pre-loaded DMEM medium supplemented with 20% FBS. The wells were added only DMEM medium with Tc3. The cells migrated through the membrane of wells in two days. Next, the wells were fixed by paraformaldehyde, stained by crystal violet and photographed for statistical analysis. For cell scratch assay, the hepatic carcinoma cells were seeded in 6-well plates and treated with Tc3. The scratch lines were obtained before the cell fusion reached almost 100%, and the cells were photographed at time gradient points for statistical analysis.

PRDX1 = assay: Western blot of PRDX1; assay type: cell-based, human; settings: hepatic carcinoma cells
Method: (§4) The whole-cell protein was extracted by RIPA lysis buffer contained with protease and phosphatase inhibitor cocktail (MCE, HY-K0010) from cells treated by indole analogues. Proteins were separated by sodium dodecyl sulfate-polyacrylamide gel electrophoresis (SDS-PAGE) gel, and then blotted onto polyvinylidene difluoride membrane (Millipore, IPVH00010). The membranes were incubated with the primary antibodies and the following horseradish peroxidase-conjugated (HRP) secondary antibodies. Next, membranes were washed and developed by ECL regent (Millipore, WBKLS0500).

PERK = assay: Western blot of ER stress responders; assay type: cell-based, human; settings: HepG2 and SK-Hep1 cells
Method: as §4

HepG2 cells [7] = assay: Anti-tumor activity assay (IC50 value), cells counted after three days;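 also: HepG2 cells exposed to a drug concentration series for 3 days, then counted with a hemocytometer, inhibition relative to untreated control cell number, IC50 obtained by curve fitting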
Method: For half maximal inhibitory concentrations (IC50) analysis, the hepatic carcinoma cells (HepG2, SK-Hep1 and PLC-PRF5) were seeded in 24-well plates respectively, then treated with drugs at concentration gradient for three days. The cells were counted with hemocytometer. […] A is the cell quantity of the control group and B is the cell quantity of the drug treated group. The cell inhibition rate was transformed using its logarithm. And the drug IC50 value were calculated by Graphpad Prsim 9 software with curve fitting of the drug concentration and log (cell inhibition rate).

CC(C)[C@H](N)C(=O)NCCCn1cc(/C=C2\S/C(=N\c3ccc(N4CCOCC4)cc3)N(Cc3ccc(F)cc3)C2=O)c2ccccc21 [Tc3]
pIC50 (AML-12 cells [1]): 5.21
cell death by annexin V / propidium iodide flow cytometry (HepG2 cells [2]): severe cell death
cell death by annexin V / propidium iodide flow cytometry (AML-12 cells [3]): not observed
stability to hydrolysis [4]: no changes
pIC50 (shDFNA5 HepG2 cells): 5.32
Number of down-regulated gene (HepG2 cells [5]): 38
Number of up-regulated gene (HepG2 cells [5]): 182
number of DEGs (HepG2 cells [5]): 220
damage to liver, spleen, kidney and small intestine (pathology) (Hepa1-6 CDXs; 10 mg/kg): did not cause significant damage
tumor growth of Hepa1-6 CDXs compared to control groups (Hepa1-6 CDXs; i.p., Tc3 10 mg/kg, anti-PD-1 10 mg/kg): significantly inhibited tumor growth
tumor size and weight of PDXs (hepatocarcinoma PDXs): significantly reduced the tumor size and weight
growth rate and weight of HepG2 CDX tumors (HepG2 CDXs): significantly smaller
tumor proliferation (growth curve, colony formation) [6]: significantly inhibited tumor proliferation
cell migration rates (wound scratch, transwell) (hepatic carcinoma cells): reduced cell migration rates
expression of PRDX1 (PRDX1): obviously reduced
PERK activation (western blotting) (PERK): activated
fold increase in cellular potency (HepG2 cells [7]; HepG2, compared to T1): ~12 fold
pIC50 (HepG2 cells [7]; Homo sapiens, HepG2, 72 h, read-out: IC50 HepG2): 5.86
